Several values for one entry are separate records, joined by “and”; a condition that tells them apart may be missing. Equal entries are not always repeated. Where two headings read alike, the source gives them in different places.
How the values were obtained:
MAO = type: biochemical, human
Method: MAO activity was measured with [^14 C]tyramine as substrate using a modification of the method by Yu [P. H. YU, Neuromethods, Neurotransmitter Enzymes, A. A. Boulton, G. B. Baker and P. H. Yu, 235-272, Humana Press, Clifton, N.J. (1986))]. Membranes were incubated with [^14 C]tyramine (0.5 mM) at 21° C., pH 7.4 for 40 min. Enzyme activity was stopped by lowering pH to 1.0 with 2 M HCl. The radiolabeled products of MAO degradation (p-hydroxyphenylacetic acid and p-hydroxymandelic acid) were then extracted into toluene ethyl acetate by vortexing for 15 min and aliquots of the organic phase counted. Extraction was enhanced by the addition of a 1 mg/ml carrier concentration of both products and saturating concentration of NaCl.
(§1) Binding data were calculated as fmol bound ligand/mg protein. Protein was determined by the Lowry method. Binding constants were calculated by nonlinear curve fitting (Lundon Software) and the fit to a one or two site model was tested using two-way ANOVA. Relative MAO activity was calculated as CPM/mg protein/min or moles/mg protein/min.
Data are mean±SEM of 3 experiments. […] The data is depicted in FIG. 5.
Data are expressed as percent of maximum binding or MAO activity and represent the mean±SEM of 3 experiments. […] The data is depicted in FIG. 6.

rat liver MAO A = conditions: cited from earlier work
rat liver MAO B = conditions: cited from earlier work
[1] = target: T1, [^3 H]BFI binding sites (I2 binding site) (Homo sapiens, UniProt P27338); test: Ligand competition for [^3 H]BFI binding in human cortex; conditions: for Affinity in competition for [^3 H]BFI binding: human brain
T1 construct: Frozen sections of human cortex (Brodman's areas 8,9,10), human medulla; from tissue; host or cells: P2 membranes of human cortex (Brodmann areas 8, 9, 10) and human medulla (NRL)
T1 sequence (P27338 2-520 limits assumed): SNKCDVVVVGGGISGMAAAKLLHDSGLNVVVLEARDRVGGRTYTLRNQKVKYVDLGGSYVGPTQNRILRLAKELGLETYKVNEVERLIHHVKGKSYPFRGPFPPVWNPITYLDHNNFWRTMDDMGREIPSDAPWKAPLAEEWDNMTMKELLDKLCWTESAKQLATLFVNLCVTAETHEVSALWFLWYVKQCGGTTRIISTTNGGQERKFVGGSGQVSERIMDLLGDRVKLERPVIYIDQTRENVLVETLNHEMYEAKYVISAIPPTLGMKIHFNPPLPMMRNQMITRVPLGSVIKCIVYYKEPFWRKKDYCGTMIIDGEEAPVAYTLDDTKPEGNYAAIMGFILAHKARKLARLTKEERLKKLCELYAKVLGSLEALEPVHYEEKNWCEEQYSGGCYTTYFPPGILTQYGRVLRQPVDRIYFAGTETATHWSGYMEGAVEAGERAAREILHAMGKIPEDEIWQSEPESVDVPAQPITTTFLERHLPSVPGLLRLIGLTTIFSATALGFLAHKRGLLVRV
Method: (§2) Membrane fractions were isolated at 4° C. using differential centrifugation as follows: Homogenates were centrifuged at 500×g to remove nuclei and cell debris followed by 45,000×g to obtain the P2 membrane fraction. The P2 pellet was washed twice with 50 mM Tris-HCl buffer. Between washes the pellet resuspension was incubated for 30 min at 25° C. to allow dissociation of endogenous ligands from their receptors. The final pellet was resuspended in 50 mM Tris-HCl, pH 7.5, and stored at -70° C. until used.
as §1

I2 sites = conditions: read-out: KD of [^3 H]BFI binding; rabbit cortex, previously reported; cited from earlier work
[2] = target: [^3 H]BFI binding sites (I2 binding site); test: Ligand competition for [^3 H]BFI binding in human cortex; conditions: human cortex, 8 nM [^3 H]BFI, two-site fit
Method: as §2, §1

N[C@@H]1C[C@H]1c1ccccc1 (relative stereo) [TCP, Tranylcypromine]
Potentiation of BFI binding in guinea pig tissues by TCP (BFI binding sites): not seen
Inhibition of MAO activity (MAO; 1 μM TCP preincubation (maximal potentiation of binding)): 80%
TCP concentration of maximal inhibition of MAO activity (MAO; 40 min preincubation, washed): 3 µM
Maximal inhibition of MAO activity (MAO; TCP concentrations >3 μM): 95%

c1ccc2oc(C3=NCCN3)cc2c1 [BFI, 2-(2-benzofuranyl)-2-imidazoline]
Inhibition of rat liver MAO A (rat liver MAO A): inhibits
Inhibition of rat liver MAO B (rat liver MAO B): inhibits

COC1(C2=NCCN2)COc2ccccc2O1 (stereo not drawn) [RX821002]
Ki [1]: 9400 ± 1800 nM
Affinity in competition for [^3 H]BFI binding [1]: low affinity

c1ccc2oc(C3=NCCN3)cc2c1 [[^3 H]BFI, 2-(2-benzofuranyl)-2-imidazoline]
Kd (I2 sites): 2.7 nM

N=C(N)NC(=O)c1nc(Cl)c(N)nc1N [amiloride]
Affinity in competition for [^3 H]BFI binding [1]: low affinity

c1ccc(C2CC2)c(OCC2=NCCN2)c1 [cirazoline]
Ki [1]: 13 ± 4.5 nM
Affinity in competition for [^3 H]BFI binding [1]: high affinity

Clc1cccc(Cl)c1N=C1NCCN1 [clonidine]
Affinity in competition for [^3 H]BFI binding [1]: low affinity
Ki ([2]; read-out: Ki for competition of [^3 H]BFI binding, two-site model, first (high-affinity) value): 73.4 ± 24.6 nM
Ki ([2]; read-out: Ki for competition of [^3 H]BFI binding, two-site model, second (low-affinity) value): 86300 ± 11100 nM

N=C(N)N/N=C/c1c(Cl)cccc1Cl [guanabenz]
Ki [1]: 72.5 ± 24 nM
Affinity in competition for [^3 H]BFI binding [1]: high affinity

c1ccc2c(c1)OCC(C1=NCCN1)O2 (stereo not drawn) [idazoxan]
Ki [1]: 80.4 ± 17 nM
Inhibition of rat liver MAO A (rat liver MAO A): not

COc1nc(C)nc(Cl)c1N=C1NCCN1 [moxonidine]
Affinity in competition for [^3 H]BFI binding [1]: low affinity

C#CCN(C)Cc1ccccc1 [pargyline]
Inhibition of basal MAO activity (MAO; preincubation with 10 μM pargyline, all durations (10, 30, 60 min)): > 90% and 90%
